Measured values: patent US20240409585A1, “MACROCYCLIC IMMUNOMODULATORS” (priority 2021, published 2024)
Numbered stars: 1 amine (or outer) side, 2 acyl side, 3 side chain; on linkers, the order of the positions; unused ones are H or OH. Bridge positions count the residues as written; N and C are the ends. Square brackets hold non-standard residues; d marks the D form. Peptide text beside a SMILES is read from it. * marks the point of attachment. ξ: configuration not given here. Phe(4-COOH) = N[C@@H](Cc1ccc(C(=O)O)cc1)C(=O)O; Phe(4-CH2NH2) = NCc1ccc(C[C@H](N)C(=O)O)cc1; Bip = N[C@@H](Cc1ccc(-c2ccccc2)cc1)C(=O)O; Phe(4-CN) = N#Cc1ccc(C[C@H](N)C(=O)O)cc1; Phe(2-Cl) = N[C@@H](Cc1ccccc1Cl)C(=O)O; Phe(3-Me) = Cc1cccc(C[C@H](N)C(=O)O)c1; Val(3-OH) = CC(C)(O)[C@H](N)C(=O)O; X49 = O=C(C(N[*:1])C1CCOCC1)[*:2]; Cha = N[C@@H](CC1CCCCC1)C(=O)O; Cit = NC(=O)NCCC[C@H](N)C(=O)O; Ile(3ξ) = CCC(C)[C@H](N)C(=O)O; Thr(3ξ) = CC(O)[C@H](N)C(=O)O; Carboxymethyl = O=C(O)C*; NMeA = CN[C@@H](C)C(=O)O; Orn = NCCC[C@H](N)C(=O)O; Dab = NCC[C@H](N)C(=O)O; Nva = CCC[C@H](N)C(=O)O; Dap = NC[C@H](N)C(=O)O; ξN = NC(=O)CC(N)C(=O)O; ξC = NC(CS)C(=O)O

Each molecule was assayed against T1, PE-labeled human PD-L1-Ig binding to Jurkat cell line over-expressing human PD-1 (Jurkat-PD-1) (Homo sapiens, UniProt Q15116) (assay: Jurkat-PD-1 Cell Binding High-Content Screening Assay (CBA): Method 1). Conditions: Jurkat-hPD-1 cells, PE-labeled PD-L1-Ig 20 nM final; read-out: Jurkat HPDL1 PD1 IC50 (uM) (Method 1).
T1 construct: expressed in transfected cells; host or cells: Jurkat
T1 sequence (Q15116 25-288): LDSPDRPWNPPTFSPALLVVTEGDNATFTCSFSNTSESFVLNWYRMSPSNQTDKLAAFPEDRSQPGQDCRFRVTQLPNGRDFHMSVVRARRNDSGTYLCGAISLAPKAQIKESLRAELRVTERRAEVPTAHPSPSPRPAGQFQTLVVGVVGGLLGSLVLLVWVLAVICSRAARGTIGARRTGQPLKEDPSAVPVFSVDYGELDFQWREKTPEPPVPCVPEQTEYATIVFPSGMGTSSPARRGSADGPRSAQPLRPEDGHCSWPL

Row | Structure (SMILES) | IC50 [µM]
1 | CCC[C@@H]1NC(=O)[C@H](Cc2ccc(-c3ccccc3)cc2)NC(=O)[C@H](C(C)C)NC(=O)[C@H](Cc2c[nH]c3ccccc23)NC(=O)[C@H](CC(=O)O)NC(=O)[C@H](Cc2ccc(O)cc2)NC(=O)[C@H](CC(N)=O)NC(=O)CSC[C@@H](C(=O)N[C@@H](C)C(N)=O)NC(=O)[C@H]([C@@H](C)O)NC(=O)[C@H](C(C)C)NC(=O)[C@H](CC(C)C)NC(=O)[C@H](CCN)NC(=O)[C@@H](CC(C)C)NC(=O)[C@H](C)N(C)C1=O [Compound 1258] ({CH2CO}-NYDWV[Bip][Nva][NMeA][dL][Dab]LVTCA-NH2; thioether N-14) | 0.04
2 | CC(C)C[C@@H]1NC(=O)[C@H](CCN)NC(=O)[C@@H](CC(C)C)NC(=O)[C@H](C)N(C)C(=O)[C@H](CCCNC(N)=O)NC(=O)[C@H](Cc2ccc(-c3ccccc3)cc2)NC(=O)[C@H](C(C)C)NC(=O)[C@H](Cc2c[nH]c3ccccc23)NC(=O)[C@H](CC(=O)O)NC(=O)[C@H](Cc2ccc(CN)cc2)NC(=O)[C@H](CC(N)=O)NC(=O)CSC[C@@H](C(=O)N[C@@H](C)C(N)=O)NC(=O)[C@H]([C@@H](C)O)NC(=O)[C@H](C(C)C)NC1=O [Compound 1322] ({CH2CO}-N[Phe(4-CH2NH2)]DWV[Bip][Cit][NMeA][dL][Dab]LVTCA-NH2; thioether N-14) | 0.02
3 | CC(C)C[C@@H]1NC(=O)[C@H](CCCNC(=N)N)NC(=O)[C@@H](CC(C)C)NC(=O)[C@H](C)N(C)C(=O)[C@H](CCCNC(=N)N)NC(=O)[C@H](Cc2ccc(-c3ccccc3)cc2)NC(=O)[C@H](C(C)C)NC(=O)[C@H](Cc2c[nH]c3ccccc23)NC(=O)[C@H](CC(=O)O)NC(=O)[C@H](Cc2ccc(C#N)cc2)NC(=O)[C@H](Cc2ccccc2)NC(=O)CSC[C@@H](C(=O)N[C@@H](C)C(N)=O)NC(=O)[C@H]([C@@H](C)O)NC(=O)[C@H](C(C)C)NC1=O [Compound 1100] ({CH2CO}-F[Phe(4-CN)]DWV[Bip]R[NMeA][dL]RLVTCA-NH2; thioether N-14) | 0.53
4 | CC(C)C[C@@H]1NC(=O)[C@H](CCCCN)NC(=O)[C@@H](CC(C)C)NC(=O)[C@H](C)N(C)C(=O)[C@H](CCCNC(=N)N)NC(=O)[C@H](Cc2ccc(-c3ccccc3)cc2)NC(=O)[C@H](C(C)C)NC(=O)[C@H](Cc2c[nH]c3ccccc23)NC(=O)[C@H](CC(=O)O)NC(=O)[C@H](Cc2ccc(O)cc2)NC(=O)[C@H](CC(N)=O)NC(=O)CSC[C@@H](C(=O)N[C@@H](CO)C(N)=O)NC(=O)[C@H]([C@@H](C)O)NC(=O)[C@H](C(C)C)NC1=O [Compound 1174] ({CH2CO}-NYDWV[Bip]R[NMeA][dL]KLVTCS-NH2; thioether N-14) | 0.06
5 | CC(C)C[C@@H]1NC(=O)[C@H](CCCNC(=N)N)NC(=O)[C@@H](CC(C)C)NC(=O)[C@H](C)N(C)C(=O)[C@H](CCCNC(=N)N)NC(=O)[C@H](Cc2ccc(-c3ccccc3)cc2)NC(=O)[C@H](C(C)C)NC(=O)[C@H](Cc2ccccc2Cl)NC(=O)[C@H](CC(=O)O)NC(=O)[C@H](Cc2ccc(O)cc2)NC(=O)[C@H](CC(N)=O)NC(=O)CSC[C@@H](C(=O)N[C@@H](C)C(N)=O)NC(=O)[C@H]([C@@H](C)O)NC(=O)[C@H](C(C)C)NC1=O [Compound 1193] ({CH2CO}-NYD[Phe(2-Cl)]V[Bip]R[NMeA][dL]RLVTCA-NH2; thioether N-14) | 0.35
6 | CC(C)C[C@@H]1NC(=O)[C@H](CCN)NC(=O)[C@@H](CC(C)C)NC(=O)[C@H](C)N(C)C(=O)[C@H](C(C)C)NC(=O)[C@H](Cc2ccc(-c3ccccc3)cc2)NC(=O)[C@H](C(C)C)NC(=O)[C@H](Cc2c[nH]c3ccccc23)NC(=O)[C@H](CC(=O)O)NC(=O)[C@H](Cc2ccc(O)cc2)NC(=O)[C@H](CN)NC(=O)CSC[C@@H](C(=O)N[C@@H](C)C(N)=O)NC(=O)[C@H]([C@@H](C)O)NC(=O)[C@H](C(C)C)NC1=O [Compound 1360] ({CH2CO}-[Dap]YDWV[Bip]V[NMeA][dL][Dab]LVTCA-NH2; thioether N-14) | 0.02

Second part, the molecule after the results:

Row | IC50 [µM] | Structure (SMILES)
7 | 0.05 | Cc1cccc(C[C@@H]2NC(=O)[C@H](CC(=O)O)NC(=O)[C@H](Cc3ccc(OCC(=O)O)cc3)NC(=O)[C@H](CN)NC(=O)CSCC(C(N)=O)NC(=O)[C@H](CO)NC(=O)[C@H](C(C)C)NC(=O)[C@H](CC(C)C)NC(=O)[C@H](CC(N)=O)NC(=O)[C@@H](CC(C)C)NC(=O)[C@H](C)N(C)C(=O)[C@H](C(C)C)NC(=O)[C@H](Cc3ccc(-c4ccccc4)cc3)NC(=O)[C@H](CC(C)C)NC2=O)c1 (stereo partly drawn) [Compound 1597] ({CH2CO}-[Dap]Y(Carboxymethyl)D[Phe(3-Me)]L[Bip]V[NMeA][dL]NLVS[ξC]-NH2; thioether N-14)
8 | 0.02 | CC(C)C[C@@H]1NC(=O)[C@H](Cc2c[nH]c3ccccc23)NC(=O)[C@H](CC(=O)O)NC(=O)[C@H](Cc2ccc(C(=O)O)cc2)NC(=O)[C@H](Cc2ccc(OCC(=O)O)cc2)NC(=O)CSC[C@@H](C(=O)NC(CC(N)=O)C(N)=O)NC(=O)[C@H](CO)NC(=O)[C@H](C(C)C)NC(=O)[C@H](CC2CCCCC2)NC(=O)[C@H](CCN)NC(=O)[C@@H](CC(C)C)NC(=O)[C@H](C)N(C)C(=O)[C@H](C(C)C)NC(=O)[C@H](Cc2ccc(-c3ccccc3)cc2)NC1=O (stereo partly drawn) [Compound 1912] ({CH2CO}-Y(Carboxymethyl)[Phe(4-COOH)]DWL[Bip]V[NMeA][dL][Dab][Cha]VSC[ξN]-NH2; thioether N-14)
9 | 0.05 | CC(=O)NCCC[C@@H]1NC(=O)[C@H](Cc2ccc(-c3ccccc3)cc2)NC(=O)[C@H](Cc2ccc(O)cc2)NC(=O)[C@H](Cc2cccc(C)c2)NC(=O)[C@H](CC(=O)O)NC(=O)[C@H](Cc2ccc(OCC(=O)O)cc2)NC(=O)[C@H](CCCNC(=N)N)NC(=O)CSC[C@@H](C(N)=O)NC(=O)[C@H]([C@@H](C)O)NC(=O)[C@H](C(C)C)NC(=O)[C@H](CC2CCCCC2)NC(=O)[C@H](CCN)NC(=O)[C@@H](CC(C)C)NC(=O)[C@H](C)N(C)C1=O [Compound 1869] ({CH2CO}-RY(Carboxymethyl)D[Phe(3-Me)]Y[Bip][Orn](Ac)[NMeA][dL][Dab][Cha]VTC-NH2; thioether N-14)
10 | 0.01 | CCC(C)[C@@H]1NC(=O)[C@H](Cc2ccc(-c3ccccc3)cc2)NC(=O)[C@H](C(C)C)NC(=O)[C@H](Cc2cccc(C)c2)NC(=O)[C@H](CC(=O)O)NC(=O)[C@H](Cc2ccc(OCC(=O)O)cc2)NC(=O)[C@H](C(C)O)NC(=O)CSC[C@@H](C(=O)N[C@@H](CO)C(=O)O)NC(=O)[C@H](C(C)O)NC(=O)[C@H](C(C)C)NC(=O)[C@H](CC2CCCCC2)NC(=O)[C@H](CCN)NC(=O)[C@@H](CC(C)C)NC(=O)[C@H](C)N(C)C1=O (stereo partly drawn) [Compound 2232] ({CH2CO}-[Thr(3ξ)]Y(Carboxymethyl)D[Phe(3-Me)]V[Bip][Ile(3ξ)][NMeA][dL][Dab][Cha]V[Thr(3ξ)]CS-OH; thioether N-14)
11 | 0.03 | CC[C@H](C)[C@@H]1NC(=O)[C@H](Cc2ccc(-c3ccccc3)cc2)NC(=O)[C@H](C(C)C)NC(=O)[C@H](Cc2c[nH]c3ccccc23)NC(=O)[C@H](CC(=O)O)NC(=O)[C@H](Cc2ccc(O)cc2)NC(=O)[C@H](CCC(N)=O)NC(=O)CSC[C@@H](C(=O)N[C@@H](C)C(N)=O)NC(=O)[C@H]([C@@H](C)O)NC(=O)[C@H](C(C)C)NC(=O)[C@H](CC(C)C)NC(=O)[C@H](CCN)NC(=O)[C@@H](CC(C)C)NC(=O)[C@H](C)N(C)C1=O [Compound 1391] ({CH2CO}-QYDWV[Bip]I[NMeA][dL][Dab]LVTCA-NH2; thioether N-14)
12 | 0.03 | CC(C)C[C@@H]1NC(=O)[C@H](Cc2c[nH]c3ccccc23)NC(=O)[C@H](CC(=O)O)NC(=O)[C@H](Cc2ccc(OCC(=O)O)cc2)NC(=O)[C@H](Cc2ccccc2)NC(=O)CSC[C@@H](C(=O)N[C@@H](C)C(N)=O)NC(=O)[C@H](CO)NC(=O)[C@H](C(C)C)NC(=O)[C@H](CC(C)C)NC(=O)[C@H](CC(N)=O)NC(=O)[C@@H](CC(C)C)NC(=O)[C@H](C)N(C)C(=O)[C@H](CCCCN)NC(=O)[C@H](Cc2ccc(-c3ccccc3)cc2)NC1=O [Compound 2030] ({CH2CO}-FY(Carboxymethyl)DWL[Bip]K[NMeA][dL]NLVSCA-NH2; thioether N-14)
13 | 0.23 | CCC(C)[C@@H]1NC(=O)[C@H](Cc2ccc(-c3ccccc3)cc2)NC(=O)[C@H](C(C)C)NC(=O)[C@H](Cc2c[nH]c3ccccc23)NC(=O)[C@H](CC(=O)O)NC(=O)[C@H](Cc2ccc(O)cc2)NC(=O)[C@H](CCN)NC(=O)CSC[C@@H](C(=O)NC(C(N)=O)C2CCOCC2)NC(=O)[C@H](C(C)O)NC(=O)[C@H](C(C)(C)O)NC(=O)[C@H](CC2CCCCC2)NC(=O)[C@H](CC(N)=O)NC(=O)[C@@H](CC(C)C)NC(=O)[C@H](C)N(C)C1=O (stereo partly drawn) [Compound 2175] ({CH2CO}-[Dab]YDWV[Bip][Ile(3ξ)][NMeA][dL]N[Cha][Val(3-OH)][Thr(3ξ)]C[X49]-NH2; thioether N-14)
14 | 0.03 | CC(C)C[C@@H]1NC(=O)[C@H](CCN)NC(=O)[C@@H](CC(C)C)NC(=O)[C@H](C)N(C)C(=O)[C@H](CCC(=O)O)NC(=O)[C@H](Cc2ccc(-c3ccccc3)cc2)NC(=O)[C@H](C(C)C)NC(=O)[C@H](Cc2c[nH]c3ccccc23)NC(=O)[C@H](CC(=O)O)NC(=O)[C@H](Cc2ccc(OCC(=O)O)cc2)NC(=O)[C@H](Cc2ccc(OCC(=O)O)cc2)NC(=O)CSC[C@@H](C(=O)N[C@@H](C)C(N)=O)NC(=O)[C@H](CO)NC(=O)[C@H](C(C)C)NC1=O [Compound 1577] ({CH2CO}-Y(Carboxymethyl)Y(Carboxymethyl)DWV[Bip]E[NMeA][dL][Dab]LVSCA-NH2; thioether N-14)
15 | 0.01 | CC(C)C[C@@H]1NC(=O)[C@H](Cc2c[nH]c3ccccc23)NC(=O)[C@H](CC(=O)O)NC(=O)[C@H](Cc2ccc(C#N)cc2)NC(=O)[C@H](Cc2ccccc2)NC(=O)CSC[C@@H](C(=O)N[C@@H](C)C(N)=O)NC(=O)[C@H](CO)NC(=O)[C@H](C(C)C)NC(=O)[C@H](CC(C)C)NC(=O)[C@H](CC(N)=O)NC(=O)[C@@H](C)NC(=O)[C@H](C)N(C)C(=O)[C@H](C(C)C)NC(=O)[C@H](Cc2ccc(-c3ccccc3)cc2)NC1=O [Compound 1726] ({CH2CO}-F[Phe(4-CN)]DWL[Bip]V[NMeA][dA]NLVSCA-NH2; thioether N-14)
